Tests used:
Assay in all cases: relative viability (nuclei count vs DMSO), 5 days (fraction); higher = more cells survive
AZD6482 + Phenformin = compound: Cc1cc([C@@H](C)Nc2ccccc2C(=O)O)c2nc(N3CCOCC3)cc(=O)n2c1 [AZD6482] + N=C(N)NC(=N)NCCc1ccccc1 [Phenformin] (partner 250 µM)
Method in brief: (§1)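 Values are medians from duplicate plates. Each reflects relative viability, defined as the nuclei count of treated wells over that of vehicle wells. Lung cancer cell lines in 1536-well plates were pin-tool dosed one day after seeding with one drug alone or with a fixed anchor-drug dose plus five library-drug doses (not always all listed) in √10 steps, then fixed, stained and imaged at 4× after 5 days.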

[1] = compound: COc1cc2nc(N3CCCN(C)CC3)nc(NC3CCN(Cc4ccccc4)CC3)c2cc1OC + Nc1nc2[nH]cc(CCc3ccc(C(=O)N[C@@H](CCC(=O)O)C(=O)O)cc3)c2c(=O)[nH]1 [Pemetrexed] (partner 0.2 µM)
Method in brief: as §1

[2] = compound: COc1cc2nc(N3CCCN(C)CC3)nc(NC3CCN(Cc4ccccc4)CC3)c2cc1OC + CC(C)C[C@H](NC(=O)[C@H](Cc1ccccc1)NC(=O)c1cnccn1)B(O)O [Bortezomib] (partner 0.002 µM)
Method in brief: as §1

[3] = compound: COc1cc2nc(N3CCCN(C)CC3)nc(NC3CCN(Cc4ccccc4)CC3)c2cc1OC
Method in brief: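 Viability was read as treated-well nuclei divided by vehicle-well nuclei, using the median across plates. Lung cancer cell lines in 1536-well plates were kept overnight at 37 °C, pinned with five √10-spaced library-drug doses, and after 5 days were Hoechst-stained, imaged at 4× and counted in MetaXpress. Plates passed only with control CV below 25% and at least one doubling.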

| Cell Line | relative viability (AZD6482 + Phenformin; first compound 0.08 µM) | relative viability (AZD6482 + Phenformin; first compound 0.253 µM) | relative viability (AZD6482 + Phenformin; first compound 0.8 µM) | relative viability (AZD6482 + Phenformin; first compound 2.53 µM) | relative viability (AZD6482 + Phenformin; first compound 8 µM) | relative viability ([1]; first compound 0.2 µM) | relative viability ([1]; first compound 0.6325 µM) | relative viability ([1]; first compound 2 µM) | relative viability ([1]; first compound 6.325 µM) | relative viability ([2]; first compound 0.2 µM) | relative viability ([2]; first compound 0.6325 µM) | relative viability ([2]; first compound 2 µM) | relative viability ([2]; first compound 6.325 µM) | relative viability ([3]; 0.2 µM) | relative viability ([3]; 0.6325 µM) | relative viability ([3]; 2 µM) | relative viability ([3]; 6.325 µM) |
| --- | --- | --- | --- | --- | --- | --- | --- | --- | --- | --- | --- | --- | --- | --- | --- | --- | --- |
| 201T | 0.436 | 0.433 | 0.496 | 0.308 | 0.314 | 0.31 | 0.334 | 0.335 | 0.279 | 1.13 | 1.14 | 1.17 | 1.07 | 0.976 | 1.05 | 1.01 | 0.983 |
| A549 | 0.154 | 0.14 | 0.222 | 0.158 | 0.153 | – | – | – | – | – | – | – | – | 1.02 | 1.01 | 0.992 | 0.935 |
| A-427 | 0.345 | 0.232 | 0.319 | – | 0.225 | 0.899 | 1 | 1.03 | 1.03 | 0.962 | 0.869 | 1.09 | 0.957 | 0.922 | 1.06 | 1.01 | 0.882 |
| ABC-1 | 0.212 | 0.237 | 0.283 | 0.229 | 0.205 | – | – | – | – | 0.26 | 0.339 | 0.264 | 0.328 | 0.924 | 1.12 | 1 | 0.926 |
| BEN | 0.349 | 0.281 | 0.24 | 0.277 | 0.182 | 0.827 | 0.943 | 1.01 | 0.716 | 0.781 | 0.952 | 1.09 | 0.883 | 1.03 | 1.06 | 1.19 | 1.04 |
| CAL-12T | 0.615 | 0.517 | 0.568 | 0.336 | 0.418 | 1.23 | 1.01 | 1.19 | 1.04 | 0.996 | 1.32 | 1.05 | 0.833 | 0.905 | 0.964 | 1.02 | 0.933 |
| COR-L23 | 0.412 | 0.445 | 0.455 | 0.343 | 0.373 | 0.205 | 0.21 | 0.208 | 0.199 | 0.956 | 0.884 | 1.11 | 0.933 | 0.942 | 1.03 | 1.06 | 1.03 |
| COR-L 105 | 0.515 | 0.443 | 0.446 | 0.409 | 0.299 | 1.08 | 1.22 | 1.15 | 0.798 | 0.787 | 0.835 | 0.591 | 0.404 | 0.868 | 1.08 | 0.793 | 0.621 |
| Calu-6 | – | – | – | – | – | – | – | – | – | 0.976 | 0.942 | 1.03 | 0.948 | 0.968 | 0.942 | 1.09 | 0.913 |
| ChaGo-K-1 | 0.54 | 0.397 | 0.446 | 0.48 | 0.416 | 0.255 | 0.256 | 0.262 | 0.264 | 0.995 | 1.13 | 1.16 | 0.838 | 0.944 | 0.985 | 1.03 | 0.94 |
| EBC-1 | – | – | – | – | – | – | – | – | – | 0.469 | 0.476 | 0.437 | 0.265 | 0.948 | 0.9 | 0.976 | 0.827 |
| EKVX | 0.212 | 0.22 | 0.233 | 0.171 | 0.208 | 0.422 | 0.404 | 0.404 | 0.41 | 1.09 | 0.993 | 1.18 | 0.963 | 0.953 | 1.04 | 0.962 | 0.954 |
| EMC-BAC-2 | 0.489 | 0.445 | 0.493 | 0.352 | 0.44 | 0.437 | 0.402 | 0.413 | 0.486 | 1.09 | 1.12 | 1.11 | 1.09 | 1.14 | 0.981 | 0.996 | 1.04 |
| EPLC-272H | 0.311 | 0.241 | 0.343 | 0.24 | 0.154 | 0.335 | 0.403 | 0.397 | 0.365 | 0.897 | 0.793 | 0.918 | 0.658 | 0.918 | 1 | 1.2 | 0.783 |
| H3255 | 0.356 | 0.333 | 0.386 | 0.343 | 0.34 | 0.563 | 0.557 | 0.595 | 0.547 | 0.782 | 0.944 | 0.726 | 0.43 | 0.915 | 0.986 | 1.1 | 0.961 |
| HARA | 0.376 | 0.395 | 0.486 | 0.399 | 0.168 | 0.258 | 0.227 | 0.227 | 0.269 | 1.03 | 1.07 | 1.28 | 1.11 | 0.895 | 1.13 | 1.08 | 0.919 |
| HCC-15 | 0.499 | 0.462 | 0.457 | 0.349 | 0.406 | 0.216 | 0.225 | 0.214 | 0.208 | 1.03 | 1.02 | 1.12 | 0.881 | 0.985 | 0.977 | 1.06 | 0.862 |
| HCC-44 | 0.255 | 0.14 | 0.189 | 0.169 | 0.167 | 0.67 | 0.636 | 0.611 | 0.646 | 0.935 | 0.85 | 0.991 | 0.909 | 0.98 | 0.996 | 0.998 | 0.981 |
| HCC-78 | 0.506 | 0.421 | 0.562 | 0.309 | 0.31 | 0.912 | 0.899 | 0.918 | 1.01 | 0.511 | 0.434 | 0.535 | 0.504 | 0.937 | 1.04 | 1.08 | 1.02 |
| HCC-366 | 0.663 | 0.609 | 0.636 | 0.477 | 0.45 | 0.186 | 0.151 | 0.171 | 0.164 | 1.02 | 1 | 1.03 | 0.927 | 1.01 | 1.03 | 0.968 | 1.01 |

Reference: the supplement of paper PMC10307832
